Test results from a compilation of properties of binary mixtures (doi:10.1007/s10973-018-7399-0).

Test: xn = mol fraction of the nth substance listed
Settings: 93.2 kPa

CC(=O)[O-].CCCC[NH3+] + CCO gave a speed of sound (293.15 K, x1 = 0.0501) of 1196.2 m/s, a viscosity (293.15 K, x1 = 0.0501) of 1.96 mPa·s and a speed of sound (293.15 K, x1 = 0.0992) of 1225.1 m/s. It also gave a viscosity (293.15 K, x1 = 0.0992) of 2.97 mPa·s, a speed of sound (293.15 K, x1 = 0.2511) of 1296.4 m/s and a viscosity (293.15 K, x1 = 0.2511) of 9.6 mPa·s. It also gave a speed of sound (293.15 K, x1 = 0.35) of 1332.8 m/s, a viscosity (293.15 K, x1 = 0.35) of 19.2 mPa·s and a speed of sound (293.15 K, x1 = 0.3999) of 1349.1 m/s. For the same compound, the viscosity (293.15 K, x1 = 0.3999) was 26.7 mPa·s, the speed of sound (293.15 K, x1 = 0.4483) was 1363.2 m/s and the viscosity (293.15 K, x1 = 0.4483) was 36.5 mPa·s. For the same compound, the speed of sound (293.15 K, x1 = 0.5503) was 1390.1 m/s, the viscosity (293.15 K, x1 = 0.5503) was 69.5 mPa·s and the speed of sound (293.15 K, x1 = 0.6002) was 1402 m/s. For the same compound, the viscosity (293.15 K, x1 = 0.6002) was 94 mPa·s, the speed of sound (293.15 K, x1 = 0.6511) was 1413.7 m/s and the viscosity (293.15 K, x1 = 0.6511) was 128 mPa·s. For the same compound, the speed of sound (293.15 K, x1 = 0.9015) was 1466 m/s, the viscosity (293.15 K, x1 = 0.9015) was 585 mPa·s and the speed of sound (293.15 K, x1 = 0.9493) was 1476.4 m/s. For the same compound, the viscosity (293.15 K, x1 = 0.9493) was 797 mPa·s, the speed of sound (293.15 K, x1 = 1) was 1488 m/s and the viscosity (293.15 K, x1 = 1) was 1103 mPa·s. The speed of sound (298.15 K, x1 = 0.0501) was 1179.2 m/s, the viscosity (298.15 K, x1 = 0.0501) was 1.76 mPa·s and the speed of sound (298.15 K, x1 = 0.0992) was 1208.3 m/s. It also gave a viscosity (298.15 K, x1 = 0.0992) of 2.65 mPa·s, a speed of sound (298.15 K, x1 = 0.15) of 1234.9 m/s and a viscosity (298.15 K, x1 = 0.15) of 3.94 mPa·s. For the same compound, the speed of sound (298.15 K, x1 = 0.2001) was 1258.4 m/s, the viscosity (298.15 K, x1 = 0.2001) was 5.77 mPa·s and the speed of sound (298.15 K, x1 = 0.2511) was 1280.1 m/s. The viscosity (298.15 K, x1 = 0.2511) was 8.32 mPa·s, the speed of sound (298.15 K, x1 = 0.3001) was 1299 m/s and the viscosity (298.15 K, x1 = 0.3001) was 11.6 mPa·s. For the same compound, the speed of sound (298.15 K, x1 = 0.35) was 1316.6 m/s, the viscosity (298.15 K, x1 = 0.35) was 16.3 mPa·s and the speed of sound (298.15 K, x1 = 0.4483) was 1347.1 m/s. The viscosity (298.15 K, x1 = 0.4483) was 30.3 mPa·s, the speed of sound (298.15 K, x1 = 0.4987) was 1361 m/s and the viscosity (298.15 K, x1 = 0.4987) was 41.2 mPa·s. For the same compound, the speed of sound (298.15 K, x1 = 0.6511) was 1397.6 m/s, the viscosity (298.15 K, x1 = 0.6511) was 101.1 mPa·s and the speed of sound (298.15 K, x1 = 0.7988) was 1428.3 m/s. For the same compound, the viscosity (298.15 K, x1 = 0.7988) was 235 mPa·s, the speed of sound (298.15 K, x1 = 0.9015) was 1448.3 m/s and the viscosity (298.15 K, x1 = 0.9015) was 424 mPa·s. It also gave a speed of sound (298.15 K, x1 = 0.9493) of 1457.8 m/s, a viscosity (298.15 K, x1 = 0.9493) of 566 mPa·s and a speed of sound (298.15 K, x1 = 1) of 1468.3 m/s. The viscosity (298.15 K, x1 = 1) was 765 mPa·s, the speed of sound (303.15 K, x1 = 0.0992) was 1191.7 m/s and the viscosity (303.15 K, x1 = 0.0992) was 2.37 mPa·s. The speed of sound (303.15 K, x1 = 0.15) was 1218.5 m/s, the viscosity (303.15 K, x1 = 0.15) was 3.5 mPa·s and the speed of sound (303.15 K, x1 = 0.2001) was 1242.1 m/s. For the same compound, the viscosity (303.15 K, x1 = 0.2001) was 5.08 mPa·s, the speed of sound (303.15 K, x1 = 0.2511) was 1263.9 m/s and the viscosity (303.15 K, x1 = 0.2511) was 7.24 mPa·s. It also gave a speed of sound (303.15 K, x1 = 0.3001) of 1282.9 m/s, a viscosity (303.15 K, x1 = 0.3001) of 10 mPa·s and a speed of sound (303.15 K, x1 = 0.35) of 1300.6 m/s. The viscosity (303.15 K, x1 = 0.35) was 13.9 mPa·s, the speed of sound (303.15 K, x1 = 0.3999) was 1317.1 m/s and the viscosity (303.15 K, x1 = 0.3999) was 18.9 mPa·s. For the same compound, the speed of sound (303.15 K, x1 = 0.4483) was 1331.2 m/s, the viscosity (303.15 K, x1 = 0.4483) was 25.4 mPa·s and the speed of sound (303.15 K, x1 = 0.4987) was 1345.2 m/s. It also gave a viscosity (303.15 K, x1 = 0.4987) of 34.1 mPa·s, a speed of sound (303.15 K, x1 = 0.5503) of 1358.3 m/s and a viscosity (303.15 K, x1 = 0.5503) of 45.9 mPa·s. It also gave a speed of sound (303.15 K, x1 = 0.6002) of 1370.2 m/s, a viscosity (303.15 K, x1 = 0.6002) of 60.7 mPa·s and a speed of sound (303.15 K, x1 = 0.6511) of 1381.7 m/s. It also gave a viscosity (303.15 K, x1 = 0.6511) of 80.6 mPa·s, a speed of sound (303.15 K, x1 = 0.7008) of 1392.4 m/s and a viscosity (303.15 K, x1 = 0.7008) of 106 mPa·s. It also gave a speed of sound (303.15 K, x1 = 0.7495) of 1402.4 m/s, a viscosity (303.15 K, x1 = 0.7495) of 138 mPa·s and a speed of sound (303.15 K, x1 = 0.7988) of 1412.2 m/s. For the same compound, the viscosity (303.15 K, x1 = 0.7988) was 180 mPa·s, the speed of sound (303.15 K, x1 = 0.8496) was 1421.9 m/s and the viscosity (303.15 K, x1 = 0.8496) was 238 mPa·s. For the same compound, the speed of sound (303.15 K, x1 = 0.9015) was 1431.5 m/s, the viscosity (303.15 K, x1 = 0.9015) was 313 mPa·s and the speed of sound (303.15 K, x1 = 0.9493) was 1440.5 m/s. For the same compound, the viscosity (303.15 K, x1 = 0.9493) was 412 mPa·s, the speed of sound (308.15 K, x1 = 0.0501) was 1145.8 m/s and the viscosity (308.15 K, x1 = 0.0501) was 1.44 mPa·s. The speed of sound (308.15 K, x1 = 0.0992) was 1175.2 m/s, the viscosity (308.15 K, x1 = 0.0992) was 2.13 mPa·s and the speed of sound (308.15 K, x1 = 0.15) was 1202.1 m/s. The viscosity (308.15 K, x1 = 0.15) was 3.11 mPa·s, the speed of sound (308.15 K, x1 = 0.2001) was 1225.9 m/s and the viscosity (308.15 K, x1 = 0.2001) was 4.49 mPa·s. For the same compound, the speed of sound (308.15 K, x1 = 0.2511) was 1247.8 m/s, the viscosity (308.15 K, x1 = 0.2511) was 6.34 mPa·s and the speed of sound (308.15 K, x1 = 0.3001) was 1266.9 m/s. It also gave a viscosity (308.15 K, x1 = 0.3001) of 8.67 mPa·s, a speed of sound (308.15 K, x1 = 0.4483) of 1315.5 m/s and a viscosity (308.15 K, x1 = 0.4483) of 21.4 mPa·s. It also gave a speed of sound (308.15 K, x1 = 0.4987) of 1329.5 m/s, a viscosity (308.15 K, x1 = 0.4987) of 28.4 mPa·s and a speed of sound (308.15 K, x1 = 0.5503) of 1342.7 m/s. It also gave a viscosity (308.15 K, x1 = 0.5503) of 37.9 mPa·s, a speed of sound (308.15 K, x1 = 0.6002) of 1354.6 m/s and a viscosity (308.15 K, x1 = 0.6002) of 49.5 mPa·s. It also gave a speed of sound (308.15 K, x1 = 0.6511) of 1366.1 m/s, a viscosity (308.15 K, x1 = 0.6511) of 65 mPa·s and a speed of sound (308.15 K, x1 = 0.7008) of 1376.8 m/s. The viscosity (308.15 K, x1 = 0.7008) was 84.2 mPa·s, the speed of sound (308.15 K, x1 = 0.7495) was 1386.7 m/s and the viscosity (308.15 K, x1 = 0.7495) was 109 mPa·s. For the same compound, the speed of sound (308.15 K, x1 = 0.7988) was 1396.3 m/s, the viscosity (308.15 K, x1 = 0.7988) was 140 mPa·s and the speed of sound (308.15 K, x1 = 0.9015) was 1415.3 m/s. For the same compound, the viscosity (308.15 K, x1 = 0.9015) was 236 mPa·s, the speed of sound (308.15 K, x1 = 0.9493) was 1423.9 m/s and the viscosity (308.15 K, x1 = 0.9493) was 305 mPa·s. It also gave a speed of sound (308.15 K, x1 = 1) of 1433 m/s, a viscosity (308.15 K, x1 = 1) of 397 mPa·s and a speed of sound (313.15 K, x1 = 0.0992) of 1158.9 m/s. For the same compound, the viscosity (313.15 K, x1 = 0.0992) was 1.93 mPa·s, the speed of sound (313.15 K, x1 = 0.2511) was 1231.9 m/s and the viscosity (313.15 K, x1 = 0.2511) was 5.58 mPa·s. For the same compound, the speed of sound (313.15 K, x1 = 0.35) was 1269 m/s, the viscosity (313.15 K, x1 = 0.35) was 10.3 mPa·s and the speed of sound (313.15 K, x1 = 0.3999) was 1285.6 m/s. For the same compound, the viscosity (313.15 K, x1 = 0.3999) was 13.9 mPa·s, the speed of sound (313.15 K, x1 = 0.4987) was 1314.1 m/s and the viscosity (313.15 K, x1 = 0.4987) was 24 mPa·s. For the same compound, the speed of sound (313.15 K, x1 = 0.5503) was 1327.3 m/s, the viscosity (313.15 K, x1 = 0.5503) was 31.6 mPa·s and the speed of sound (313.15 K, x1 = 0.6002) was 1339.2 m/s. The viscosity (313.15 K, x1 = 0.6002) was 40.9 mPa·s, the speed of sound (313.15 K, x1 = 0.7008) was 1361.4 m/s and the viscosity (313.15 K, x1 = 0.7008) was 68.1 mPa·s. It also gave a speed of sound (313.15 K, x1 = 0.7495) of 1371.3 m/s, a viscosity (313.15 K, x1 = 0.7495) of 86.6 mPa·s and a speed of sound (313.15 K, x1 = 0.7988) of 1380.9 m/s. It also gave a viscosity (313.15 K, x1 = 0.7988) of 110 mPa·s, a speed of sound (313.15 K, x1 = 0.8496) of 1390.4 m/s and a viscosity (313.15 K, x1 = 0.8496) of 141 mPa·s. The speed of sound (313.15 K, x1 = 0.9015) was 1399.6 m/s, the viscosity (313.15 K, x1 = 0.9015) was 181 mPa·s and the speed of sound (313.15 K, x1 = 1) was 1416.7 m/s. The viscosity (313.15 K, x1 = 1) was 295 mPa·s.
